Results: patent US12447147B2, “Methods of treating, ameliorating, and/or preventing cancer using pyrvinium compositions” (Thomas Jefferson University, priority 2019, dated 2025)
Read-outs that look alike come from different tables or passages of the source. One block for each compound: values may come before it.

Tests used:
PDA = test: Tumor volume, PARP inhibitor with or without shHuR; format: in vivo
From the text: HuR (ELAVL1) is an RNA binding protein that, upon exposure to a variety of intrinsic cancer related stressors, binds to a network of pro-survival mRNAs leading to an increase in their stability and translation. […] HuR CRISPR knockout PDA cell lines have a xenograft lethal phenotype. […] HuR is also important for oxaliplatin resistance in PDA. Utilizing a tumor microarray (TMA) from resected patient samples of PDA, it was discovered that 79% (n=80) of patients were positive for cytoplasmic HuR, with little to no cytoplasmic localization detected in adjacent normal tissues. HuR is a driver of chemoresistance in PDA and thus a prime target for re-sensitizing PDA cells to current therapies. While several compounds have been investigated as HuR inhibitors, to date there are no clinically viable HuR inhibitors.

Panc-1 = test: 5 day viability assay (Pico Green), Panc-1; format: cell-based; details: Homo sapiens, 120 h
Description: (§1) The efficacy of pyrvinium pamoate was determined in a panel of PDA cell lines.

[1] = target: HuR binding to target mRNA COX2 (Homo sapiens, UniProt Q15717); test: Inhibition of HuR binding to target mRNA COX2; details: given as a range
[2] = oral tablets or suspensions; urine up to 96 hours after each dose; cited from earlier work
cyclin Dl = test: Cyclin D1 knockdown (FIG. 12)
CFPAC = test: 5 day viability assay (Pico Green), CFPAC; format: cell-based; details: 120 h
Description: as §1

HS766T = test: 5 day viability assay (Pico Green), HS766T; format: cell-based; details: 120 h
Description: as §1

MIA-PaCa2 = test: 5 day viability assay (Pico Green), MIA-PaCa2; format: cell-based; details: Homo sapiens, MIA PaCa-2, 120 h
Description: as §1

PDX-X139 = test: 5 day viability assay (Pico Green), PDX cell line; format: cell-based; details: 120 h
From the text: (§2) KPC mice have both an activating KRAS mutation (KRAS is mutated in up to 90% of PDA) and a loss of P53 driven by a pancreas specific Cre promoter. The KTC organoid model is derived from a GEMM that has a driver KRAS mutation and greater than 2-fold overexpression of HuR, specifically in the pancreas.

[3] = In vivo models, pyrvinium pamoate and ademaciclib (FIGS. 14A-14C)
COX2 DNA binding to HuR = COX2 DNA binding to HuR (Homo sapiens, UniProt Q15717); test: Inhibition of COX2 DNA binding to HuR; details: for Mean Max % I: mean of n1 and n2; for Max % I, n1: replicate n1; for Max % I, n2: replicate n2
VEGF DNA binding to HuR = VEGF DNA binding to HuR (Homo sapiens, UniProt Q15717); test: Inhibition of VEGF DNA binding to HuR; details: for Mean Max % I: mean of n1 and n2; for Max % I, n1: replicate n1; for Max % I, n2: replicate n2
MIA-PaCa2 cells = test: MIA-PaCa2 flank tumor growth in mice; format: in vivo, nude mice; details: for tumor growth: 1 mg/kg IP 3 times weekly vs vehicle, MIA-PaCa2 flank tumors started at 100 mm^3
From the text: as §2

[4] = Synergy with CDK4/6 inhibitors (FIGS. 13A-13F)
KTC Organoids = test: 5 day viability assay (Pico Green), KTC organoids; format: cell-based; details: Mus musculus, 120 h
From the text: as §2

[5] = target: HuR binding to target mRNA VEGF (Homo sapiens, UniProt Q15717); test: Inhibition of HuR binding to target mRNA VEGF; details: given as a range
[6] = mean of n1 and n2, read-out: Mean IC50
[7] = replicate n1, read-out: IC50, n1
[8] = replicate n2, read-out: IC50, n2

Chain of COX2 DNA binding to HuR (Q15717 whole entry): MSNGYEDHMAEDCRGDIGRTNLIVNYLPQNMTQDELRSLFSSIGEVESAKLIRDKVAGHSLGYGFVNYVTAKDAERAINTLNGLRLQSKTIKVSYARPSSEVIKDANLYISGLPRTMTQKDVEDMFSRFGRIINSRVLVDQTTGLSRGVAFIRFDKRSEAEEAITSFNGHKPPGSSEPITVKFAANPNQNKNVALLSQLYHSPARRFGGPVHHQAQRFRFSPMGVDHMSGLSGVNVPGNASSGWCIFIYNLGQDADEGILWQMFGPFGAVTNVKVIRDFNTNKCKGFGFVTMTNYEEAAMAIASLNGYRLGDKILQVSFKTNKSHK
Chain of VEGF DNA binding to HuR (Q15717 whole entry): as above
Chain of HuR binding to target mRNA VEGF (Q15717 whole entry): as above
Chain of HuR binding to target mRNA COX2 (Q15717 whole entry): as above

Compound: O=C(c1cc(Cc2n[nH]c(=O)c3ccccc23)ccc1F)N1CCN(C(=O)C2CC2)CC1 [olaparib]
reduction in tumor volume (PDA; combined with shHuR (DOX-inducible)): 9.3 fold
reduction in tumor volume (PDA; olaparib alone): 5.6 fold

Compound: Cc1cc(/C=C/c2ccc3cc(N(C)C)ccc3[n+]2C)c(C)n1-c1ccccc1 [PP, pyrvinium pamoate]
IC50 (Panc-1): 92 nM
IC50 [1]: 207 to 453 nM
urine levels of pyrvinium vs the 24 hr prior to administration [2]: not significantly different
knockdown of cyclin Dl (cyclin Dl): causes a knockdown
IC50 (CFPAC): 21 nM
IC50 (HS766T): 93 nM
IC50 (MIA-PaCa2): 40 nM
IC50 (PDX-X139): 9 nM
efficacy in in vivo models [3]: efficacious
Mean Max % I (COX2 DNA binding to HuR): 89.3%
IC50 (COX2 DNA binding to HuR; [6]): 198 nM
Max % I, n1 (COX2 DNA binding to HuR): 88.8%
IC50 (COX2 DNA binding to HuR; [7]): 340 nM
Max % I, n2 (COX2 DNA binding to HuR): 89.8%
IC50 (COX2 DNA binding to HuR; [8]): 115 nM
Mean Max % I (VEGF DNA binding to HuR): 86.8%
IC50 (VEGF DNA binding to HuR; [6]): 149 nM
Max % I, n1 (VEGF DNA binding to HuR): 87.2%
IC50 (VEGF DNA binding to HuR; [7]): 187 nM
Max % I, n2 (VEGF DNA binding to HuR): 86.5%
IC50 (VEGF DNA binding to HuR; [8]): 118 nM
tumor growth (MIA-PaCa2 cells): reduced tumor growth
tumor growth (MIA-PaCa2 cells; listed as pyrvinium pamoate): significant decrease
mouse weights (MIA-PaCa2 cells; 1 mg/kg IP 3 times weekly, MIA-PaCa2 tumor-bearing mice): no changes
effect with CDK4/6 inhibitors [4]: synergistic effect
IC50 (KTC Organoids): 93 nM
IC50 [5]: 203 to 416 nM

Compound: O=C1[O][Pt]2([NH][C@@H]3CCCC[C@H]3[NH]2)[O]C1=O [Oxaliplatin]
IC50 [1]: > 20000 nM
IC50 (COX2 DNA binding to HuR; [6]): > 20000 nM
Max % I, n1 (COX2 DNA binding to HuR): 100.0%
IC50 (COX2 DNA binding to HuR; [7]): > 20000 nM
Max % I, n2 (COX2 DNA binding to HuR): 100.0%
IC50 (COX2 DNA binding to HuR; [8]): > 20000 nM
IC50 (VEGF DNA binding to HuR; [6]): > 20000 nM
IC50 (VEGF DNA binding to HuR; [7]): > 20000 nM
IC50 (VEGF DNA binding to HuR; [8]): > 20000 nM
IC50 [5]: > 20000 nM

Compound: CCN1CCN(Cc2ccc(Nc3ncc(F)c(-c4cc(F)c5nc(C)n(C(C)C)c5c4)n3)nc2)CC1 [ademaciclib]
efficacy in in vivo models [3]: efficacious

Compound: Cc1cccc2c3c(ccc12)C1=C(C(=O)C3=O)[C@@H](C)CO1 [DHTS]
Mean Max % I (COX2 DNA binding to HuR): 94.0%
IC50 (COX2 DNA binding to HuR; [6]): 599 nM
Max % I, n1 (COX2 DNA binding to HuR): 100.0%
IC50 (COX2 DNA binding to HuR; [7]): 1080 nM
Max % I, n2 (COX2 DNA binding to HuR): 88.1%
IC50 (COX2 DNA binding to HuR; [8]): 332 nM
Mean Max % I (VEGF DNA binding to HuR): 92.9%
IC50 (VEGF DNA binding to HuR; [6]): 1500 nM
Max % I, n1 (VEGF DNA binding to HuR): 86.5%
IC50 (VEGF DNA binding to HuR; [7]): 1070 nM
Max % I, n2 (VEGF DNA binding to HuR): 99.2%
IC50 (VEGF DNA binding to HuR; [8]): 2120 nM

The remaining lines, values ahead:

IC50 [1]: > 20000 nM
IC50 (COX2 DNA binding to HuR; [6]): > 20000 nM
Max % I, n1 (COX2 DNA binding to HuR): 100.0%
IC50 (COX2 DNA binding to HuR; [7]): > 20000 nM
Max % I, n2 (COX2 DNA binding to HuR): 100.0%
IC50 (COX2 DNA binding to HuR; [8]): > 20000 nM
IC50 (VEGF DNA binding to HuR; [6]): > 20000 nM
IC50 (VEGF DNA binding to HuR; [7]): > 20000 nM
IC50 (VEGF DNA binding to HuR; [8]): > 20000 nM
IC50 [5]: > 20000 nM
Compound: Nc1ccn([C@@H]2O[C@H](CO)[C@@H](O)C2(F)F)c(=O)n1 [Gemcitabine]

Mean Max % I (COX2 DNA binding to HuR): 100.0%
IC50 (COX2 DNA binding to HuR; [6]): 5470 nM
Max % I, n1 (COX2 DNA binding to HuR): 100.0%
IC50 (COX2 DNA binding to HuR; [7]): 4080 nM
Max % I, n2 (COX2 DNA binding to HuR): 100.0%
IC50 (COX2 DNA binding to HuR; [8]): 7340 nM
Mean Max % I (VEGF DNA binding to HuR): 100.0%
IC50 (VEGF DNA binding to HuR; [6]): 7380 nM
Max % I, n1 (VEGF DNA binding to HuR): 100.0%
IC50 (VEGF DNA binding to HuR; [7]): 6100 nM
Max % I, n2 (VEGF DNA binding to HuR): 100.0%
IC50 (VEGF DNA binding to HuR; [8]): 8930 nM
Compound: Dihydro-tashinone

Mean Max % I (COX2 DNA binding to HuR): 100.0%
IC50 (COX2 DNA binding to HuR; [6]): 33 nM
Max % I, n1 (COX2 DNA binding to HuR): 100.0%
IC50 (COX2 DNA binding to HuR; [7]): 33 nM
Max % I, n2 (COX2 DNA binding to HuR): 100.0%
IC50 (COX2 DNA binding to HuR; [8]): 32 nM
Mean Max % I (VEGF DNA binding to HuR): 99.8%
IC50 (VEGF DNA binding to HuR; [6]): 16 nM
Max % I, n1 (VEGF DNA binding to HuR): 100.0%
IC50 (VEGF DNA binding to HuR; [7]): 15 nM
Max % I, n2 (VEGF DNA binding to HuR): 99.5%
IC50 (VEGF DNA binding to HuR; [8]): 17 nM
Compound: Cc1occ2c1C(=O)c1c(O)ccc(O)c1C2 [MS444]

Mean Max % I (COX2 DNA binding to HuR): 81.6%
IC50 (COX2 DNA binding to HuR; [6]): 674 nM
Max % I, n1 (COX2 DNA binding to HuR): 81.1%
IC50 (COX2 DNA binding to HuR; [7]): 593 nM
Max % I, n2 (COX2 DNA binding to HuR): 82.1%
IC50 (COX2 DNA binding to HuR; [8]): 767 nM
Mean Max % I (VEGF DNA binding to HuR): 78.7%
IC50 (VEGF DNA binding to HuR; [6]): 1290 nM
Max % I, n1 (VEGF DNA binding to HuR): 85.6%
IC50 (VEGF DNA binding to HuR; [7]): 1280 nM
Max % I, n2 (VEGF DNA binding to HuR): 71.9%
IC50 (VEGF DNA binding to HuR; [8]): 1300 nM
Compound: COc1ccc(C(CC(=O)N2CCCC2)c2c(OC)cc(OC)c3c(-c4ccccc4)cc(=O)oc23)cc1 (stereo not drawn) [CMLD2]

Mean Max % I (COX2 DNA binding to HuR): 83.8%
IC50 (COX2 DNA binding to HuR; [6]): 2950 nM
IC50 (COX2 DNA binding to HuR; [7]): 2220 nM
Max % I, n2 (COX2 DNA binding to HuR): 84.1%
IC50 (COX2 DNA binding to HuR; [8]): 3910 nM
Mean Max % I (VEGF DNA binding to HuR): 78.3%
IC50 (VEGF DNA binding to HuR; [6]): 5410 nM
IC50 (VEGF DNA binding to HuR; [7]): 5050 nM
Max % I, n2 (VEGF DNA binding to HuR): 74.9%
IC50 (VEGF DNA binding to HuR; [8]): 5790 nM
Compound: CC(=O)O[C@H]1C(=O)[C@@]2(C)[C@H]([C@H](OC(=O)c3ccccc3)[C@]3(O)C[C@H](OC(=O)[C@H](O)[C@@H](NC(=O)c4ccccc4)c4ccccc4)C(C)=C1C3(C)C)[C@]1(OC(C)=O)CO[C@@H]1C[C@@H]2O [Paclitaxel]

Mean Max % I (COX2 DNA binding to HuR): 92.7%
IC50 (COX2 DNA binding to HuR; [6]): 29 nM
Max % I, n1 (COX2 DNA binding to HuR): 92.9%
IC50 (COX2 DNA binding to HuR; [7]): 28 nM
Max % I, n2 (COX2 DNA binding to HuR): 92.4%
IC50 (COX2 DNA binding to HuR; [8]): 30 nM
Mean Max % I (VEGF DNA binding to HuR): 74.7%
IC50 (VEGF DNA binding to HuR; [6]): 144 nM
Max % I, n1 (VEGF DNA binding to HuR): 77.0%
IC50 (VEGF DNA binding to HuR; [7]): 167 nM
Max % I, n2 (VEGF DNA binding to HuR): 72.4%
IC50 (VEGF DNA binding to HuR; [8]): 124 nM
Compound: Verteporfin
